The values that follow come from patent publication US10077258B2, “Substituted pyrimidine compounds as phosphatidylinositol 3-kinase delta inhibitor and use thereof” (NANJING SANHOME PHARMACEUTICAL CO., LTD., priority 2015, dated 2018).

The target of one assay is T1, PI3Kβ (Homo sapiens, UniProt P42338).
T1 construct: purchased Millipore 14-603-K
Briefly: In vitro kinase activity (LabChip EZ Reader mobility shift), PI3Kβ. The format is biochemical. Particulars: kinase subtype PI3Kβ (p110β). Here is the method: (§1) Compounds: the compounds prepared in above examples of the present invention, each of which was prepared to a concentration of 10 mM in DMSO and diluted to […], 100 nM, 10 nM, 1 nM, 0.1 nM, 0.01 nM successively.
(§2) Reagents: PI3Kα (p110α(p85a), purchased from Invitrogen, Cat.No. PV4788; PIK3Cδ (p110δ/p85a), purchased from Millipore, Cat.No. 14-604-K; PIK3Cβ (p110β), purchased from Millipore, Cat.No. 14-603-K; PIK3Cγ (pp110γ), purchased from Invitrogen, Cat.No. PR8641C; DMSO, purchased from Sigma; EDTA, purchased from Sigma; 1× kinase buffer (50 mM HEPES, pH 7.5, 0.0015% Brij-35, 10 mM MgCl2, 2 mM DTT), which was prepared before use; termination solution (100 mM HEPES, pH 7.5, 0.015% Brij-35, 0.2% Coating Reagent#3, 50 mM EDTA), which was prepared before use.
(§3) Instruments: LabChip EZ Reader purchased from Caliper, USA.
(§4) 2.1 10 μl solution of each concentration of each compound was placed into 96-well plate and 90 μl of 1× kinase buffer was added. DMSO control group and control group without kinase activity were set up, which all contained 10 μl DMSO and 90 μl of 1× kinase buffer. Each group was mixed well at room temperature for 10 min, and then 5 μl of each group was transferred to a 384-well plate.
(§5) 2.2 Kinases were dissolved in 1× kinase buffer to prepare a 2.5× kinase solution. 10 μl of 2.5× kinase solution was transferred to the 384-well plate containing compounds of different concentrations. 10 μl of 2.5× kinase solution was added to DMSO control group and 10 μl of 1× kinase buffer without kinase was added to control group without kinase activity. The plate was incubated at room temperature for 10 min.
(§6) 2.3 ATP and the polypeptide labeled with FAM were dissolved in 1× kinase buffer to prepare 2.5× substrate solution. Then 10 μl of 2.5× substrate solution was transferred to the 384-well plate and incubated at 28° C. for 1 h.
(§7) 2.4 25 μl of termination solution was added to each well to terminate the reaction.
(§8) 2.5 The plate was placed on the LabChip EZ Reader to read the data of conversion rate and inhibitory rate (1%) was calculated according to formula: I %=(Max−Com)/(Max−Min)×100, wherein Max was the conversion rate of DMSO control group, Min was the conversion rate of control group without kinase activity, Com was the conversion rate of compound treatment group. IC50 was fitted by XLfit processing of the data.

A further assay relates to SU-DHL-6 lymphoma cells. In words: In vitro cell activity, CellTiter-Glo cell viability, SU-DHL-6. The format is cell-based. Particulars: Homo sapiens, SU-DHL-6 lymphoma cell line, 72 h. Here is the method: (§9) Compounds: the compounds prepared in above examples of the present invention, each of which was prepared to a concentration of 10 mM in DMSO and diluted 3 times to 20000.00 nM, 6666.67 nM, 2222.22 nM, 740.74 nM, 246.91 nM, 27.43 nM, 9.14 nM, 3.05 nM successively.
(§10) The lymphoma cell lines SU-DHL-5 and SU-DHL-6 were purchased from the American Type Culture Collection (ATCC).
(§11) Reagents: PRMI-1640, purchased from Invitrogen (USA); FBS, purchased from Invitrogen (USA); EDTA, purchased from Sigma (USA); CellTiter-Glo® Luminescent Cell Viability Assay Kit, purchased from Progema (USA); Backseal membrane, purchased from Perkin Elmer (USA).
(§12) The cells were thawed in a 37° C. water bath and then transferred to 15 ml preheated medium. The cells were centrifuged at 1000 rpm for 5 min and the medium was discarded. The cells were resuspended in 15 ml fresh medium and transferred to T75 culture flask and incubated in an incubator at 37° C. with 5% CO2. The medium was replaced with fresh medium 24 h later.
(§13) The resuscitated cells above were transferred to a 50 ml sterile centrifuge tube and centrifuged at 1000 rpm for 5 min. The medium was discarded, and the cells were dispersed uniformly and counted. The appropriate cell concentration was adjusted in 15 ml fresh medium and added to T75 culture flask. The flask was incubated in an incubator at 37° C. with 5% CO2.
When the cells in the T75 culture flask grew to 1×10^5˜1×10^6 cells/ml, the cells were resuspended with fresh medium (RPMI-1640+20% FBS) and counted. […] 10 min later, the Assay plate was attached at the bottom by Backseal membrane and placed on Envison to detect the fluorescence reading. Cell survive (%) was calculated according to the formula: cell survive (%)=(Com−Min)/(Max−Min), wherein Max was the reading of solvent control group, Min was the reading of control group without cells, and Com was the reading of compound treatment group.
(In ATP-based viability assays light output follows the ATP content of the culture.)

The next assay addresses T2, PI3Kα (Homo sapiens, UniProt P42336).
T2 construct: purchased Invitrogen PV4788
In words: In vitro kinase activity (LabChip EZ Reader mobility shift), PI3Kα. The format is biochemical. The following applies: kinase subtype PI3Kα (p110α/p85a). How it is done: as §1, §2, §3, §4, §5, §6, §7, §8

Another assay concerns the target T3, PI3Kγ (Homo sapiens, UniProt P48736).
T3 construct: purchased Invitrogen PR8641C
Briefly: In vitro kinase activity (LabChip EZ Reader mobility shift), PI3Kγ. The following applies: kinase subtype PI3Kγ (p110γ). The format is biochemical. How it is done:
as §1, §2, §3, §4, §5, §6, §7, §8

For a further assay, the system named is SU-DHL-5 lymphoma cells. In words: In vitro cell activity, CellTiter-Glo cell viability, SU-DHL-5. The format is cell-based. Particulars: Homo sapiens, SU-DHL-5 lymphoma cell line, 72 h. How it is done: as §9, §10, §11, §12, §13
When the cells in the T75 culture flask grew to 1×10^5˜1×10^6 cells/ml, the cells were resuspended with fresh medium (RPMI-1640+20% FBS) and counted. The resuspended cells were adjusted to the following eight concentrations: 1×10^4 cells/ml, 2×10^4 cells/ml, 3×10^4 cells/ml, 5×10^4 cells/ml, 8×10^4 cells/ml, 1×10^5 cells/ml, 1.5×10^5 cells/ml, and 2×10^5 cells/ml. The above cell suspensions were added to 96-well cell culture plate, 100 μl each well (1×10^3 cells/ml, 2×10^3 cells/ml, 3×10^3 cells/ml, 5×10^3 cells/ml, 8×10^3 cells/ml, 1×10^4 cells/ml, 1.5×10^4 cells/ml, and 2×10^4 cells/ml, respectively). Each concentration was done double in three plates. 72 h later, 100 μl CellTiter-Glo® Luminescent Cell Viability Assay buffer was added to test wells and shaken gently. 10 min later, the Assay plate was attached at the bottom by Backseal membrane and placed on Envison to detect the fluorescence reading. Cell survive (%) was calculated according to the formula: cell survive (%)=(Com−Min)/(Max−Min), wherein Max was the reading of solvent control group, Min was the reading of control group without cells, and Com was the reading of compound treatment group.

A further assay concerns the target T4, PI3Kδ (Homo sapiens, UniProt O00329).
T4 construct: purchased Millipore 14-604-K
Briefly: In vitro kinase activity (LabChip EZ Reader mobility shift), PI3Kδ. The following applies: kinase subtype PI3Kδ (p110δ/p85a). The format is biochemical. Here is the method:
as §1, §2, §3, §4, §5, §6, §7, §8

Structures are written as SMILES.

T2 sequence (P42336 whole entry): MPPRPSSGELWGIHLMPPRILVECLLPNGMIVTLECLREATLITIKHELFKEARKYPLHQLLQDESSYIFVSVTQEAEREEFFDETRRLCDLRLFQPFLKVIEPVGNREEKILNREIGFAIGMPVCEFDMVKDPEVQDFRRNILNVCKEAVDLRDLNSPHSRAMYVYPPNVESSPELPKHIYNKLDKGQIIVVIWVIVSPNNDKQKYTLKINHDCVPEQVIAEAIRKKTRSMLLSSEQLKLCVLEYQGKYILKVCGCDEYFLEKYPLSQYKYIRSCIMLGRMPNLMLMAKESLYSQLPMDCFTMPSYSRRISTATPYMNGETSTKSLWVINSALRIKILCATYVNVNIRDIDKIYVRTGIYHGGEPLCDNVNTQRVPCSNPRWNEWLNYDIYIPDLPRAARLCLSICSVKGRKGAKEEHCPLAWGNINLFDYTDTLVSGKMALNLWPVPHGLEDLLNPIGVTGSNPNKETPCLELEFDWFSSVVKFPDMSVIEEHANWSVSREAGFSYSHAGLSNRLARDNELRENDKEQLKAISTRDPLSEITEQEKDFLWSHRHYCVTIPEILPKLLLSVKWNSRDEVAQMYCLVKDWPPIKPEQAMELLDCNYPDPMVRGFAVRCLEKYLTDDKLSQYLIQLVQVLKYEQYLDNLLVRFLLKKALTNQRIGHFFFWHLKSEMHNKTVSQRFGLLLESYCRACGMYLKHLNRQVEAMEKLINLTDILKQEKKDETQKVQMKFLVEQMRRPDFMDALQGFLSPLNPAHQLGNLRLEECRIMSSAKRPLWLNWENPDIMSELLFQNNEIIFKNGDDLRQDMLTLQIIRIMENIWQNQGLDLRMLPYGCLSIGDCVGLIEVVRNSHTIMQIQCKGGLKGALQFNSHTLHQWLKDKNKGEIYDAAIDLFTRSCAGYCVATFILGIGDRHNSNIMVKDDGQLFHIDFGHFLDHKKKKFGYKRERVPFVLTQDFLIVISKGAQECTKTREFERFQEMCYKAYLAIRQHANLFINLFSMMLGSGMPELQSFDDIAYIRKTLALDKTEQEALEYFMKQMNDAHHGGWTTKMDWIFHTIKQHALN
T2 sequence (P27986 whole entry partner): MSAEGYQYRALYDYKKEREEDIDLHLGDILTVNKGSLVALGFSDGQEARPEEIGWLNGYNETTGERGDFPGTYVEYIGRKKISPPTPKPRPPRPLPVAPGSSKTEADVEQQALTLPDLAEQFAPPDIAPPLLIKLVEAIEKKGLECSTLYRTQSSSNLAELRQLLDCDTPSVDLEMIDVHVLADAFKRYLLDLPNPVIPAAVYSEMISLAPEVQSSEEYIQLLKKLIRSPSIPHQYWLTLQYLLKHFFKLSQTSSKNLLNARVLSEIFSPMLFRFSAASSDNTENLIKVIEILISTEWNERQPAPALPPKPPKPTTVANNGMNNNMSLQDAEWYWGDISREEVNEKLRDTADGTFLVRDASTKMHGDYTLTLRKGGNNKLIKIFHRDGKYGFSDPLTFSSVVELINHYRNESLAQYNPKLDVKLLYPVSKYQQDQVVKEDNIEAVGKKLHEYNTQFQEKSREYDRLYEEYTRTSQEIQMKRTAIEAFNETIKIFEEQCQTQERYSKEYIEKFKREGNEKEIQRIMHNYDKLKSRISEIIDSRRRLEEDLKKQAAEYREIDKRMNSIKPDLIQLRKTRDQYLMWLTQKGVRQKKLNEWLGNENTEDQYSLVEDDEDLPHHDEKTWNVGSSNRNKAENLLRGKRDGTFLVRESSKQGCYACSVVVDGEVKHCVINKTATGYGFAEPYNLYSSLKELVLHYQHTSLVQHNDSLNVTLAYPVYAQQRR
T4 sequence (O00329 whole entry): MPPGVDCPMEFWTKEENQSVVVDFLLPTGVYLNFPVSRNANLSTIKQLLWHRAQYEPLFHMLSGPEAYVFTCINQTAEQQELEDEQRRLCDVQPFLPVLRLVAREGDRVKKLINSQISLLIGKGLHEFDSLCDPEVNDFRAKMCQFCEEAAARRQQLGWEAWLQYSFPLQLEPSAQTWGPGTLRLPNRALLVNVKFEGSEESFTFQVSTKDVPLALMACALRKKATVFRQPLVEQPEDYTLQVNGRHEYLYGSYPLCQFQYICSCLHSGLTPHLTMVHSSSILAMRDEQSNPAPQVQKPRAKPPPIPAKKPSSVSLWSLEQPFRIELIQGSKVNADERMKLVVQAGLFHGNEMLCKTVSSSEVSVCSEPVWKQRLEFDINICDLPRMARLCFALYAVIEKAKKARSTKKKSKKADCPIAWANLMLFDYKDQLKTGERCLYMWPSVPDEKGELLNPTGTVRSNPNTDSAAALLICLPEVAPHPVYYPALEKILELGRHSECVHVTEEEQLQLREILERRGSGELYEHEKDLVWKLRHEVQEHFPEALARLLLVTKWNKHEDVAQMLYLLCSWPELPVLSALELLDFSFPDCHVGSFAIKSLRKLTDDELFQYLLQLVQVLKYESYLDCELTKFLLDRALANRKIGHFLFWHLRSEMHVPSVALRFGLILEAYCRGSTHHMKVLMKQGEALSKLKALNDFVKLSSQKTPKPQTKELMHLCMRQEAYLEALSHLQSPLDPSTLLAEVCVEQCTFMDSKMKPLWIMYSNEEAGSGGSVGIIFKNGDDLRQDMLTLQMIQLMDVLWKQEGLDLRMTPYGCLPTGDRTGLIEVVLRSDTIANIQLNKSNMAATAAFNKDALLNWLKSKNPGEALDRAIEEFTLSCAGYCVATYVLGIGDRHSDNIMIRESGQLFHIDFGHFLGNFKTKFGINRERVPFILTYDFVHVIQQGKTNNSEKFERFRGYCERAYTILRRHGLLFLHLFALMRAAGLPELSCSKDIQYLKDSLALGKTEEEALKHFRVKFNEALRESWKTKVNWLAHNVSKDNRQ
T4 sequence (P27986 whole entry partner): as the sequence (P27986 whole entry partner) above
T3 sequence (P48736 whole entry): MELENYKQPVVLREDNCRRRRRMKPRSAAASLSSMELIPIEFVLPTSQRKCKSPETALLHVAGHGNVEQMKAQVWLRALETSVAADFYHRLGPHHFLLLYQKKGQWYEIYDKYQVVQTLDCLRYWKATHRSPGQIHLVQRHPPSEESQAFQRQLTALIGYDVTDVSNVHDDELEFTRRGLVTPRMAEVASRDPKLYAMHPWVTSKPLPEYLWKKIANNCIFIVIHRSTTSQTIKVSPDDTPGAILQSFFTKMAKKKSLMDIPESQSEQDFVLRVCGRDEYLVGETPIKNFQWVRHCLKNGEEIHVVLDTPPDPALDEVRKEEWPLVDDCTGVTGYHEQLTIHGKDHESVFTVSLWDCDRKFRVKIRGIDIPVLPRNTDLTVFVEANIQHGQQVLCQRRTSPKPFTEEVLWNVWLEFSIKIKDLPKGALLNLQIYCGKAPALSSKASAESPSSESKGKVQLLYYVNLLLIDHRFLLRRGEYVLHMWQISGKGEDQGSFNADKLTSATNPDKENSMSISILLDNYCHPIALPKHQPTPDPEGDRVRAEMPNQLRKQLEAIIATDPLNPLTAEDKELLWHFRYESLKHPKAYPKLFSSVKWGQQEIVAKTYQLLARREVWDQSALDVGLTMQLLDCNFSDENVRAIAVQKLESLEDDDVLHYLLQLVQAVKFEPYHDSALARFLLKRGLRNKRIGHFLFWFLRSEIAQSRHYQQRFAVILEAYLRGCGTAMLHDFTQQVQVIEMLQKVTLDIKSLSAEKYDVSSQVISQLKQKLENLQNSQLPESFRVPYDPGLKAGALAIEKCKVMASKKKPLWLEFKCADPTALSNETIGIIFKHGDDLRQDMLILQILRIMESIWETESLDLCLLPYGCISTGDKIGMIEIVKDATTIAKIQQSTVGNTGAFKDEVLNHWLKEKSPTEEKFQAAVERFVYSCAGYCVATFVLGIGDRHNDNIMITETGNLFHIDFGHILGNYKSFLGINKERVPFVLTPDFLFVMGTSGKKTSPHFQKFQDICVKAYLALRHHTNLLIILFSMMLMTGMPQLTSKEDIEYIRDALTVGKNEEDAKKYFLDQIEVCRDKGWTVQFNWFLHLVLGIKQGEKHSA
T1 sequence (P42338 whole entry): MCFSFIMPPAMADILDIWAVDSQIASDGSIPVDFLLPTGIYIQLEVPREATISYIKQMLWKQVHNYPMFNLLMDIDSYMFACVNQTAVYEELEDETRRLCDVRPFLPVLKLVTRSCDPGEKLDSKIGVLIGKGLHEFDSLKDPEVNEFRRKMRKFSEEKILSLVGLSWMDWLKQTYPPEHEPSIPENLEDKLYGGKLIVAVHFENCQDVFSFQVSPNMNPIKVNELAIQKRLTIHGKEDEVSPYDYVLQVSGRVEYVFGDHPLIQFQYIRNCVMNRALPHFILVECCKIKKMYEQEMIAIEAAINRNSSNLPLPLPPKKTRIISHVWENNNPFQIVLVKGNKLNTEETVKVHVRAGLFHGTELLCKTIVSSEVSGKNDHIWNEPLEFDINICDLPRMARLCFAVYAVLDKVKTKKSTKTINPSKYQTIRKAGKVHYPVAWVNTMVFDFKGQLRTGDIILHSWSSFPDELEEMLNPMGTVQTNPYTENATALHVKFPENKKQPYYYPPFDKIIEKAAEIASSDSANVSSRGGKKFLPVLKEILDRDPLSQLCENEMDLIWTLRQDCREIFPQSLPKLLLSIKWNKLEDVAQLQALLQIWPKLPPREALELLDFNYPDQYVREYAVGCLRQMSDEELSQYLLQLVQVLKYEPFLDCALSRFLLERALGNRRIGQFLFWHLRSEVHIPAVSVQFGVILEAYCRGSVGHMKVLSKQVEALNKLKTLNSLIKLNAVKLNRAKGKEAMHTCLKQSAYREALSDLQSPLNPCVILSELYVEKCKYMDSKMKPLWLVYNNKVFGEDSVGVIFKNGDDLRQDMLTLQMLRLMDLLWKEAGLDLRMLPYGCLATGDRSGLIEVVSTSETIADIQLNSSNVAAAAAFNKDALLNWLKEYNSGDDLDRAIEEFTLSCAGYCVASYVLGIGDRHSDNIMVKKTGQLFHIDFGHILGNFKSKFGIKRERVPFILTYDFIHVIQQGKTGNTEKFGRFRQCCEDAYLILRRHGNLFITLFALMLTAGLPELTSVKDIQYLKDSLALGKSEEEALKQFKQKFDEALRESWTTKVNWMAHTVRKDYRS
T1 sequence (P27986 whole entry partner): as the sequence (P27986 whole entry partner) above

Regarding `CC(Nc1nc(N)nc(N)c1C#N)c1c(-c2ccccc2)oc2ccccc2c1=O` (stereo not drawn) [Example 4, 2,4-Diamino-5-cyano-6-(1-(4-oxo-2-phenyl-4H-chromen-3-yl)ethylamino) pyrimidine], the IC50 on PI3Kβ was 546 nM; in the assay on SU-DHL-6 lymphoma cells it was 0.014 µM; at PI3Kα, greater than 1000 nM; on PI3Kγ it was 83 nM; in the assay with SU-DHL-5 lymphoma cells, 1.41 µM; on PI3Kδ, 9.2 nM.

For `CC(Nc1ncnc(N)c1C#N)c1c(-c2ccccc2)[nH]c2ccccc2c1=O` (stereo not drawn) [Example 10, 4-Amino-5-cyano-6-((1-(4-oxo-2-phenyl-1,4-dihydroquinolin-3-yl)ethyl)amino) pyrimidine], the IC50 on PI3Kβ came out at 569 nM; with SU-DHL-6 lymphoma cells it was 0.04 µM; at PI3Kα, 1070 nM; at PI3Kγ, 441 nM; with SU-DHL-5 lymphoma cells it was 0.81 µM; on PI3Kδ, 4.4 nM.

For the compound `CCC(Nc1ncnc(N)c1C#N)c1c(-c2ccccc2)[nH]c2ccccc2c1=O` (stereo not drawn) [Example 13, 4-Amino-5-cyano-6-((1-(4-oxo-2-phenyl-1,4-dihydroquinolin-3-yl)propyl)amino)pyrimidine], the IC50 is greater than 1000 nM on PI3Kβ; greater than 1000 nM at PI3Kα; greater than 1000 nM at PI3Kγ; 1.11 µM with SU-DHL-5 lymphoma cells; 5.8 nM on PI3Kδ.

Turning to `N#Cc1c(N)ncnc1NCc1c(-c2ccccc2)[nH]c2c(Cl)cccc2c1=O` [Example 14, 4-Amino-5-cyano-6-(((8-chloro-4-oxo-2-phenyl-1,4-dihydroquinolin-3-yl)methyl)amino)pyrimidine], the 50% inhibitory concentration (IC50) is 546 nM on PI3Kβ; 0.16 µM with SU-DHL-6 lymphoma cells; greater than 1000 nM on PI3Kα; 905 nM at PI3Kγ; 4.63 µM in the assay with SU-DHL-5 lymphoma cells; 3.2 nM on PI3Kδ.

With `N#Cc1c(N)ncnc1NCc1c(-c2ccccc2)[nH]c2ccccc2c1=O` [Example 15], the 50% inhibitory concentration (IC50) on PI3Kβ is greater than 1000 nM; at PI3Kα, greater than 1000 nM; at PI3Kγ, greater than 1000 nM; in the assay on SU-DHL-5 lymphoma cells, 4.94 µM; on PI3Kδ it was 21 nM.

Regarding `N#Cc1c(N)nc(N)nc1NCc1c(-c2ccccc2)[nH]c2c(Cl)cccc2c1=O` [Example 18], the half-inhibitory concentration (IC50) was found to be 99 nM on PI3Kβ; 336 nM at PI3Kα; 61 nM on PI3Kγ; 3.4 µM with SU-DHL-5 lymphoma cells; 2 nM on PI3Kδ.

The term IC50 denotes the concentration that gives 50% inhibition.
